Measured values published in PubChem BioAssay (NCI).
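Each compound was tested at five concentrations against cells in 96-well plates for 48 hours. TGI denotes the concentration required for complete inhibition of growth.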

Tests used:
Test in all cases: NCI-60 cell line screen, 48 h
UO-31 renal = tested on: UO-31 renal
A549 NSCLC = tested on: A549 NSCLC
NCI-H460 lung = tested on: NCI-H460 lung
SNB-75 CNS = tested on: SNB-75 CNS
UACC-257 melanoma = tested on: UACC-257 melanoma
M19-MEL melanoma = tested on: M19-MEL melanoma
K-562 leukemia = tested on: K-562 leukemia
EKVX NSCLC = tested on: EKVX NSCLC
SF-539 CNS = tested on: SF-539 CNS
RXF-631 renal = tested on: RXF-631 renal
MOLT-4 leukemia = tested on: MOLT-4 leukemia
HCT-15 colon = tested on: HCT-15 colon
HOP-18 NSCLC = tested on: HOP-18 NSCLC
HOP-62 NSCLC = tested on: HOP-62 NSCLC
SNB-19 CNS = tested on: SNB-19 CNS
U251 CNS = tested on: U251 CNS
M14 melanoma = tested on: M14 melanoma
LOX IMVI melanoma = tested on: LOX IMVI melanoma
SK-MEL-5 melanoma = tested on: SK-MEL-5 melanoma
CCRF-CEM leukemia = tested on: CCRF-CEM leukemia
HT29 colon = tested on: HT29 colon
MALME-3M melanoma = tested on: MALME-3M melanoma
SF-268 CNS = tested on: SF-268 CNS
KM12 colon = tested on: KM12 colon
COLO 205 colon = tested on: COLO 205 colon
OVCAR-4 ovarian = tested on: OVCAR-4 ovarian
NCI-H522 lung = tested on: NCI-H522 lung
SK-OV-3 ovarian = tested on: SK-OV-3 ovarian
OVCAR-5 ovarian = tested on: OVCAR-5 ovarian
SW-620 colon = tested on: SW-620 colon
786-0 renal = tested on: 786-0 renal
DMS 114 small cell lung = tested on: DMS 114 small cell lung
NCI-H23 lung = tested on: NCI-H23 lung
SNB-78 CNS = tested on: SNB-78 CNS
TK-10 renal = tested on: TK-10 renal
HCC-2998 colon = tested on: HCC-2998 colon
SF-295 CNS = tested on: SF-295 CNS
OVCAR-8 ovarian = tested on: OVCAR-8 ovarian
IGROV1 ovarian = tested on: IGROV1 ovarian
SN12C renal = tested on: SN12C renal
CAKI-1 renal = tested on: CAKI-1 renal
HOP-92 NSCLC = tested on: HOP-92 NSCLC
XF 498 CNS = tested on: XF 498 CNS
DLD-1 colon = tested on: DLD-1 colon
A498 renal = tested on: A498 renal
LXFL 529 NSCLC = tested on: LXFL 529 NSCLC
NCI-H226 lung = tested on: NCI-H226 lung
KM20L2 colon = tested on: KM20L2 colon
RXF 393 renal = tested on: RXF 393 renal
RPMI-8226 leukemia = tested on: RPMI-8226 leukemia
UACC-62 melanoma = tested on: UACC-62 melanoma
SK-MEL-2 melanoma = tested on: SK-MEL-2 melanoma
SK-MEL-28 melanoma = tested on: SK-MEL-28 melanoma
DMS 273 small cell lung = tested on: DMS 273 small cell lung
OVCAR-3 ovarian = tested on: OVCAR-3 ovarian
HL-60(TB) leukemia = tested on: HL-60(TB) leukemia
ACHN renal = tested on: ACHN renal
SR leukemia = tested on: SR leukemia
HCT-116 colon = tested on: HCT-116 colon

## C[C@]12CCc3nonc3C1CC[C@@H]1C2CC[C@]2(C)C(=O)CCC12 (stereo partly drawn)
UO-31 renal
  TGI: 68.2 µM
A549 NSCLC
  TGI: 82.5 µM
NCI-H460 lung
  TGI: > 100 µM
SNB-75 CNS
  TGI: 94.5 µM
UACC-257 melanoma
  TGI: > 10 µM
M19-MEL melanoma
  TGI: 57.2 µM
K-562 leukemia
  TGI: > 100 µM
EKVX NSCLC
  TGI: 69.4 µM
SF-539 CNS
  TGI: 49.8 µM
RXF-631 renal
  TGI: > 100 µM
MOLT-4 leukemia
  TGI: 61.6 µM
HCT-15 colon
  TGI: > 100 µM
HOP-18 NSCLC
  TGI: > 100 µM
HOP-62 NSCLC
  TGI: > 100 µM
SNB-19 CNS
  TGI: > 100 µM
U251 CNS
  TGI: > 100 µM
M14 melanoma
  TGI: > 100 µM
LOX IMVI melanoma
  TGI: 47.6 µM
SK-MEL-5 melanoma
  TGI: 34.2 µM
CCRF-CEM leukemia
  TGI: 57.8 µM
HT29 colon
  TGI: 37.9 µM
MALME-3M melanoma
  TGI: 65.7 µM
SF-268 CNS
  TGI: > 100 µM
KM12 colon
  TGI: 37.4 µM
COLO 205 colon
  TGI: 56.3 µM
OVCAR-4 ovarian
  TGI: > 100 µM
NCI-H522 lung
  TGI: 72.2 µM
SK-OV-3 ovarian
  TGI: > 100 µM
OVCAR-5 ovarian
  TGI: > 100 µM
SW-620 colon
  TGI: > 100 µM
786-0 renal
  TGI: > 100 µM
DMS 114 small cell lung
  TGI: 60 µM
NCI-H23 lung
  TGI: > 100 µM
SNB-78 CNS
  TGI: > 100 µM
TK-10 renal
  TGI: > 10 µM
HCC-2998 colon
  TGI: 71.2 µM
SF-295 CNS
  TGI: 83.9 µM
OVCAR-8 ovarian
  TGI: > 100 µM
IGROV1 ovarian
  TGI: > 100 µM
SN12C renal
  TGI: > 100 µM
CAKI-1 renal
  TGI: 49.2 µM
HOP-92 NSCLC
  TGI: 55.3 µM
XF 498 CNS
  TGI: 45 µM
DLD-1 colon
  TGI: > 100 µM
A498 renal
  TGI: 78.8 µM
LXFL 529 NSCLC
  TGI: > 100 µM
NCI-H226 lung
  TGI: > 100 µM
KM20L2 colon
  TGI: 82.4 µM
RXF 393 renal
  TGI: > 100 µM
RPMI-8226 leukemia
  TGI: 46.5 µM
UACC-62 melanoma
  TGI: 68.3 µM
SK-MEL-2 melanoma
  TGI: 46.8 µM
SK-MEL-28 melanoma
  TGI: > 10 µM
DMS 273 small cell lung
  TGI: 51.1 µM
OVCAR-3 ovarian
  TGI: 58.7 µM
HL-60(TB) leukemia
  TGI: 39.2 µM
ACHN renal
  TGI: > 100 µM

## O=c1nc2sc3ccc4ccccc4c3n2nc1-c1ccccc1
UO-31 renal
  TGI: 51.4 µM
A549 NSCLC
  TGI: 94.5 µM
NCI-H460 lung
  TGI: 59.2 µM
SNB-75 CNS
  TGI: 46.9 µM
UACC-257 melanoma
  TGI: > 100 µM
M19-MEL melanoma
  TGI: > 100 µM
SR leukemia
  TGI: > 100 µM
K-562 leukemia
  TGI: > 100 µM
EKVX NSCLC
  TGI: > 100 µM
SF-539 CNS
  TGI: 34.2 µM
RXF-631 renal
  TGI: > 100 µM
MOLT-4 leukemia
  TGI: > 100 µM
HCT-15 colon
  TGI: > 100 µM
HOP-18 NSCLC
  TGI: 93.7 µM
HOP-62 NSCLC
  TGI: 66.6 µM
SNB-19 CNS
  TGI: > 100 µM
U251 CNS
  TGI: 38.2 µM
M14 melanoma
  TGI: > 100 µM
LOX IMVI melanoma
  TGI: 28.4 µM
SK-MEL-5 melanoma
  TGI: > 100 µM
CCRF-CEM leukemia
  TGI: > 100 µM
HT29 colon
  TGI: > 100 µM
MALME-3M melanoma
  TGI: 41.1 µM
SF-268 CNS
  TGI: > 100 µM
KM12 colon
  TGI: > 100 µM
COLO 205 colon
  TGI: > 100 µM
OVCAR-4 ovarian
  TGI: 29.3 µM
SK-OV-3 ovarian
  TGI: 95.1 µM
OVCAR-5 ovarian
  TGI: > 100 µM
SW-620 colon
  TGI: > 100 µM
786-0 renal
  TGI: 38 µM
DMS 114 small cell lung
  TGI: > 100 µM
NCI-H23 lung
  TGI: 87.5 µM
SNB-78 CNS
  TGI: > 100 µM
TK-10 renal
  TGI: 50.4 µM
HCC-2998 colon
  TGI: > 100 µM
SF-295 CNS
  TGI: 33.3 µM
OVCAR-8 ovarian
  TGI: 42.2 µM
IGROV1 ovarian
  TGI: 82.6 µM
SN12C renal
  TGI: 93.8 µM
CAKI-1 renal
  TGI: 73.9 µM
HCT-116 colon
  TGI: 51.2 µM
HOP-92 NSCLC
  TGI: 50 µM
XF 498 CNS
  TGI: 70.2 µM
DLD-1 colon
  TGI: > 100 µM
LXFL 529 NSCLC
  TGI: > 100 µM
NCI-H226 lung
  TGI: > 100 µM
KM20L2 colon
  TGI: > 100 µM
RXF 393 renal
  TGI: 70.6 µM
UACC-62 melanoma
  TGI: > 100 µM
SK-MEL-2 melanoma
  TGI: > 100 µM
SK-MEL-28 melanoma
  TGI: > 100 µM
DMS 273 small cell lung
  TGI: > 100 µM
OVCAR-3 ovarian
  TGI: 40.4 µM
HL-60(TB) leukemia
  TGI: > 100 µM
ACHN renal
  TGI: 87.4 µM
